Assay results as given in patent US9540405B2, “Diaminophenothiazinium derivatives for labelling biomolecules, method and substrate for labelling oligonucleotides, and oligonucleotides obtained” (UNIVERSITE CLAUDE BERNARD LYON I, priority 2012, dated 2017).

Assay: Stability study in basic medium (0.05M K2CO3 in methanol)
Format: physicochemical

Q: What does the source list for `CCCCN(CCCC)c1ccc2nc3ccc(N(CCO)CCO)cc3[s+]c2c1.[I-]` [Ra═Rb═butyl and Rc═Rd═ethanol, (dibutylamino)(diethanolamino)phenothiazinium iodide]?
A: Stability after treatment in 0.05M K2CO3/MeOH (4 h): 73%; Stability after treatment in 0.05M K2CO3/MeOH (17 h): 25%

Q: Which “Stability after treatment in 0.05M K2CO3/MeOH” value (4 h) does the source give for `CCCCN(CCCCO)c1ccc2nc3ccc(N(CCCC)CCCCO)cc3[s+]c2c1.[I-]` [Ra═Rc═butyl and Rb═Rd═butanol, bis(butylbutanolamino)phenothiazinium iodide] here?
A: 91%

Q: What about the “Stability after treatment in 0.05M K2CO3/MeOH” value (17 h) of the same molecule?
A: 66%
